# Measured values from patent US9420813B2, “Sweetener” (AJINOMOTO CO., INC., priority 2007, dated 2016).
# *1 amine or outer side, *2 acyl side, *3 side chain or, on linkers, in order; H or OH if unused. Where no end group is shown, it is not given here. [ ]: non-standard residue; d: D form. γGlu = O=C(O)[C@H](CCC(=O)[*:2])N[*:1]
# Columns and labels:
# [1] = Quantitative sensory evaluation, body taste and bitterness in drinkable yogurt containing high intensity sweetener (Example 5); parameters: species or system human; details: for Bitterness: control 0, <0 improved; for Bitterness / Body taste: n=12; for Body taste: control 0, >0 improved; for improvement of the body taste (conclusion in words): drinkable yogurt with APM, Table 20
# Method: The quantitative sensory evaluation test was performed as follows. As for a drinkable yogurt standard solution, the following compounds were used. The following standard solutions have been adjusted so they each have almost the same degree of sweetness.
# To a drinkable yogurt containing each of the sweeteners, γ-Glu-Val-Gly or cinacalcet was added and mixed at concentrations 0.0001 to 1 g/dl, and then each degree of the improvement of the body taste and the improvement of the bitterness on the sweet taste was measured.
# (§1) When a mixture is more acidic than the standard control solution, the pH of the sample was adjusted with NaOH to achieve a range of pH±0.2 with respect to the pH of the standard solution before use.
# The sensory evaluation for the improvement of the body taste was performed with n=12 on the basis of the following criteria: a control (obtained with adding distilled water only and without adding the sample) was defined as 0, and by using the control as a standard, the following were defined: weak: −2 points; slightly weak: −1 point; slightly strong: 1 point, and strong: 2 points. A higher score than 0 means that the sample has a body taste-improving effect.
# On the other hand, the sensory evaluation for the improvement of the bitterness was performed with n=12 on the basis of the following criteria: a control (obtained with adding distilled water only and without adding the sample) was defined as 0, and by using the control as a standard, the following were defined: weak: −2 points; slightly weak: −1 point; slightly strong: 1 point, and strong: 2 points. A lower score than 0 means that the sample improves the bitterness.
# [2] = Quantitative sensory evaluation, improvement of body taste and bitterness of combined high-intensity sweeteners (Examples 2 and 4); parameters: species or system human; details: for Bitterness: control 0, <0 improved; for Bitterness / Body taste: n=12; for Body taste: control 0, >0 improved; for improvement of the body taste (conclusion in words): combined sweetener solutions, Tables 9 to 12 and 16 to 19
# Method: The quantitative sensory evaluation test was performed as follows. As for a combination standard solution of each sweeteners, the following compounds were used. The following standard solutions have been adjusted so they each have almost the same degree of sweetness.
# ii) APM (0.02 g/dl)+Ace-K (0.005 g/dl) [APM:Ace-K=8:2 as a ratio of degrees of sweetness]
# iii) Sucralose (0.0058 g/dl)+Ace-K (0.0075 g/dl) [sucralose:Ace-K=7:3 as a ratio of degrees of sweetness]
# iv) APM (0.0125 g/dl)+sucralose (0.0042 g/dl) [APM:sucralose=1:1 as a ratio of degrees of sweetness]
# v) APM (0.0125 g/dl)+sucralose (0.0021 g/dl)+Ace-K (0.0063 g/dl) [APM:sucralose:Ace-K=2:1:1 as a ratio of degrees of sweetness]
# To distilled water containing each of the sweeteners, γ-Glu-Cys-Gly (glutathione), γ-Glu-Val-Gly or γ-Glu-Abu-Gly was added and mixed at concentrations of 0.0001 to 1 g/dl, and then the degree of the improvement of the body taste and the improvement of the bitterness on the sweet taste was measured. The addition effect of the peptides on each of the high-intensity sweeteners was evaluated with reference to sucrose.
# When a mixture is more acidic than the standard control solution, the pH of the mixture was adjusted with NaOH to achieve a range of pH±0.2 with respect to the pH of the standard solution before use.
# The sensory evaluation for the improvement of the body taste was performed with n=12 on the basis of the following criteria: a control (obtained by adding distilled water only and without adding glutathione and/or the peptide) was defined as 0, and by using the control as a standard, the follow were defined: weak: −2 points; slightly weak: −1 point; slightly strong: 1 point, and strong: 2 points. A higher score than 0 means that the sample has a body taste-improving effect.
# Alternatively, the sensory evaluation for the improvement of the bitterness was performed with n=12 on the basis of the following criteria: a control (obtained by adding distilled water only and without adding glutathione and/or the peptide) was defined as 0, and by using the control as a standard, the following were defined: weak: −2 points; slightly weak: −1 point; slightly strong: 1 point, and strong: 2 points. A lower score than 0 means that the sample improves the bitterness.
# The quantitative sensory evaluation test was performed as follows. As for combination standard solution of each sweeteners, the following compound was used. The following standard solutions have been adjusted so they each have almost the same degree of sweetness.
# To distilled water containing each sweetener mentioned above, γ-Glu-Val-Gly or cinacalcet was added and mixed at concentrations of 0.0001 to 1 g/dl, and then each degree of the improvement of the body taste and the improvement of the bitterness on the sweet taste was measured. The addition effect of the sample on each of the high intensity sweeteners was evaluated with reference to sucrose.
# as §1
# The sensory evaluation for the improvement of the body taste was performed with n=12 on the basis of the following criteria: a control (obtained with adding distilled water only and without adding the sample) was defined as 0, and by using the control as a standard, the following were defined: weak: −2 points; slightly weak: −1 point; slightly strong: 1 point, and strong: 2 points. A higher score than 0 means that the sample improves the body taste.
# Alternatively, the sensory evaluation for the improvement of the bitterness was performed with n=12 on the basis of the following criteria: a control (obtained with adding distilled water only and without adding the sample) was defined as 0, and by using the control as a standard, the following were defined: weak: −2 points; slightly weak: −1 point; slightly strong: 1 point, and strong: 2 points. […]
# [3] = Quantitative sensory evaluation test, intensity of kokumi-imparting activity; parameters: key to Kokumi intensity, initial and middle taste / Kokumi intensity, aftertaste / Taste profile: *: Unmeasurable: kokumi-imparting activity is too strong to measure by sensory evaluation
# Method: The quantitative sensory evaluation test was performed as follows. […] When a sample is acidic when dissolved, the pH was adjusted with NaOH to pH 6.8 to 7.2 before use. Because it is known that glutathione can impart kokumi to a food, glutathione was used as a comparative control. The test was performed with n=3 based on the following sensory evaluation scores: control was given 0 points, glutathione addition was given 3 points. […] It should be noted that the term “initial and middle taste” is a collective term of the initial taste and middle taste.
# The quantitative sensory evaluation test was performed as follows. […] When a sample is acidic when dissolved, the pH of the sample was adjusted with NaOH to pH 6.8 to 7.2 before use. The test was performed with n=5 based on the following sensory evaluation scores: control was given 0 point and glutathione addition was given 3 points.
# The quantitative sensory evaluation test was performed as follows. […] As for a sample which is acidic when the sample is dissolved, pH of the sample was adjusted with NaOH to pH 6.8 to 7.2 before use. The test was performed with n=12 based on the following sensory evaluation scores: control: 0 point and glutathione addition: 3 points.
# [4] = drinkable yogurt with APM 0.025 g/dl, sample 0.0001 g/dl
# [5] = drinkable yogurt with APM 0.025 g/dl, sample 0.001 g/dl
# [6] = APM 0.0125 + sucralose 0.0021 + Ace-K 0.0063 g/dl (2:1:1), sample 0.0001 g/dl
# [7] = APM 0.0125 + sucralose 0.0021 + Ace-K 0.0063 g/dl (2:1:1), sample 0.001 g/dl
# [8] = APM 0.0125 g/dl + sucralose 0.0042 g/dl (1:1), sample 0.0001 g/dl
# [9] = APM 0.0125 g/dl + sucralose 0.0042 g/dl (1:1), sample 0.001 g/dl
# [10] = APM 0.02 g/dl + Ace-K 0.005 g/dl (8:2), sample 0.0001 g/dl
# [11] = APM 0.02 g/dl + Ace-K 0.005 g/dl (8:2), sample 0.001 g/dl
# [12] = APM:Ace-K = 8:2, sample 0.0001 g/dl
# [13] = sucralose 0.0058 g/dl + Ace-K 0.0075 g/dl (7:3), sample 0.0001 g/dl
# [14] = sucralose 0.0058 g/dl + Ace-K 0.0075 g/dl (7:3), sample 0.001 g/dl
# [15] = sample 0.01 g/dl, control 0, glutathione 3 points, n=5
# [16] = sample 0.01 g/dl, control 0, glutathione 3 points, n=12
Compound,"Bitterness [1, 4] [points]","Body taste [1, 4] [points]","Bitterness [1, 5] [points]","Body taste [1, 5] [points]",improvement of the body taste (conclusion in words) [1],"Bitterness [2, 6] [points]","Body taste [2, 6] [points]","Bitterness [2, 7] [points]","Body taste [2, 7] [points]","Bitterness [2, 8] [points]","Body taste [2, 8] [points]","Bitterness [2, 9] [points]","Body taste [2, 9] [points]","Bitterness [2, 10] [points]","Body taste [2, 10] [points]","Bitterness [2, 11] [points]","Body taste [2, 11] [points]","Taste profile [2, 12]",improvement of the body taste (conclusion in words) [2],"Bitterness [2, 13] [points]",further results
"C[C@@H](NCCCc1cccc(C(F)(F)F)c1)c1cccc2ccccc12 [Cinacalcet, (R)—N-(3-(3-(trifluoromethyl)phenyl)propyl)-1-(1-naphthyl)ethylamine, reference compound]",−0.2,0.5,−0.1,1.6,improves the body taste at almost the same concentration,−0.2,0.5,−0.4,1.1,−0.2,0.5,−0.2,1.1,−0.1,0.5,−0.3,1.1,Sweet taste with growth is enhanced in middle,improves the body taste at almost the same concentration,−0.1,"Taste profile ([2]; APM:Ace-K = 8:2, sample 0.001 g/dl): Sweet taste with growth is enhanced in middle; Taste profile ([2]; APM:sucralose:Ace-K = 2:1:1, sample 0.0001 g/dl): Harmony and richness are present in middle; Taste profile ([2]; APM:sucralose:Ace-K = 2:1:1, sample 0.001 g/dl): Harmony and richness are present in middle; Body taste [2, 13]: 0.8 points; Bitterness [2, 14]: −0.3 points; Body taste [2, 14]: 1.5 points"
[γGlu]-Val-Gly,−0.2,0.5,−0.5,1.4,improves the body taste at almost the same concentration,−0.3,0.6,−0.7,1.3,−0.2,0.6,−0.4,1.3,−0.3,0.6,−0.7,1.3,Sweet taste with growth is enhanced in middle,improves the body taste at almost the same concentration,−0.3,"Kokumi intensity, aftertaste [3, 15]: 3.0 points; Kokumi intensity, initial and middle taste [3, 15]: 3.0 points; Kokumi intensity, aftertaste [3, 16]: 3.0 points; Kokumi intensity, initial and middle taste [3, 16]: 3.0 points; Kokumi intensity, aftertaste ([3]; sample 0.1 g/dl, n=5, symbol): *; Kokumi intensity, initial and middle taste ([3]; sample 0.1 g/dl, n=5, symbol): *; Taste profile ([3]; sample 0.1 g/dl, n=5, symbol): *; Taste profile [1, 5]: Growth is present in middle taste. Sweet taste; Body taste [2, 13]: 0.7 points; Bitterness [2, 14]: −0.7 points; Body taste [2, 14]: 1.3 points"
